We go through 13 compounds from publication PMC2746412 (European journal of pharmacology, 2009).

Where two headings read alike, the source gives them in different places.

Assay [1] addresses T1, GFP-SmSERT-A (Schistosoma mansoni, UniProt Q3HL76). Nature of the assay: [3H]-serotonin efflux experiment in COS-7 cells.
Assay [2] addresses T1, GFP-SmSERT-A. Briefly: cell-based. The format is cell-based. Conditions: for potency difference versus SmSERTs as compared with hSERT (fold less potent at SmSERTs): SmSERTs (A and B) vs hSERT, from IC50 of Table 1.
Assay [3] addresses T2, GFP-SmSERT-B (Schistosoma mansoni, UniProt Q3I1M7). Nature of the assay: [3H]-serotonin efflux experiment in COS-7 cells.
For assay [4], the target named is T3, GFP-hSERT (Homo sapiens, UniProt P31645). Briefly: Inhibition of [3H]-serotonin uptake in transfected COS-7 cells. The format is cell-based.
Assay [5] concerns the target T3, GFP-hSERT. The class given is cell-based.
The target of assay [6] is T2, GFP-SmSERT-B. Nature of the assay: cell-based.
Assay [7] has as its system S. mansoni sporocysts. Particulars: treatment of the sporocyst snail stage; ref Boyle and Yoshino, 2005; cited from earlier work.
For assay [8], the target named is SmSERT-B (Schistosoma mansoni, UniProt Q3I1M7). The format is cell-based. Conditions: for substrate-elicited transport-associated currents, SmSERT-B: voltage-clamped Xenopus oocytes.
Assay [9] addresses SmSERT-A (Schistosoma mansoni, UniProt Q3HL76). Briefly: Two-electrode voltage clamp of substrate-elicited currents in Xenopus oocytes. The format is cell-based. Conditions: for substrate-elicited transport-associated currents, SmSERT-A: voltage-clamped Xenopus oocytes.
Assay [10] deals with Schistosoma infections. Particulars: ref Gryseels et al., 2006; cited from earlier work.
Assay [11] relates to S. mansoni sporocysts. Conditions: living sporocysts; ref Boyle et al., 2003; cited from earlier work.
Assay [12] addresses T2, GFP-SmSERT-B. The format is cell-based. Particulars: COS-7 cells.
Assay [13] concerns the target T1, GFP-SmSERT-A. The format is cell-based. Conditions: COS-7 cells.
Assay [14] relates to S. mansoni adult worms. Particulars: ref Wood and Mansour, 1986, cited from earlier work.
Setting [15] is: read-out: IC50 for serotonin transporter substrates, SmSERT-A.
Setting [16] is: read-out: IC50 for serotonin transporter substrates, hSERT.
[17] abbreviates: Imax / (Vmax * Faraday constant), same batches of oocytes.

T3 sequence (P31645 whole entry): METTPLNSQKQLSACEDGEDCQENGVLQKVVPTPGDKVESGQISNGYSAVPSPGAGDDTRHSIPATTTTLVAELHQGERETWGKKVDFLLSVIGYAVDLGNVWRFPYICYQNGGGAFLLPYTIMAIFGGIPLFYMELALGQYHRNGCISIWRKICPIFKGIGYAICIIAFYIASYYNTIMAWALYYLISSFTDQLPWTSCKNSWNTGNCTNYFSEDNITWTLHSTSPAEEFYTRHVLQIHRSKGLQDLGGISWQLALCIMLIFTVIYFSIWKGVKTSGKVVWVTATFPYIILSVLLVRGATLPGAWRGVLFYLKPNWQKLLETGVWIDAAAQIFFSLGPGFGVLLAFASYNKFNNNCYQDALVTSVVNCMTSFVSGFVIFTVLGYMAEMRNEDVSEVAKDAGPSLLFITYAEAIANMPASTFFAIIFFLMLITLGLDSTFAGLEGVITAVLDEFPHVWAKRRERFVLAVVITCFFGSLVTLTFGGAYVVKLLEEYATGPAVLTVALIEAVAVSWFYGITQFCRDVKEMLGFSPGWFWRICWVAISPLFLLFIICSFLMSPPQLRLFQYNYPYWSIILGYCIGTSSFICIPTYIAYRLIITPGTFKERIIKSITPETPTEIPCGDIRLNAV

As to `CNC(C)Cc1ccc2c(c1)OCO2` (racemic) [(±)MDMA], the “[3H]-serotonin efflux elicited by compound, SmSERT-A” value in [1] is listed as “not transported”. The figures for the IC50 in [2] (setting [15]) and in [4] (setting [16]) were 320 ± 162 µM and 2.7 ± 0.5 µM, respectively. The “[3H]-serotonin efflux elicited by compound, SmSERT-B” value in [3] was “not transported”. Moreover, in assay [5], the “[3H]-serotonin efflux elicited by compound, hSERT” value is listed as “able to elicit serotonin efflux”.
Turning to `O=[N+]([O-])c1ccc2nc(N3CCNCC3)ccc2c1` [6-Nitroquipazine], the values for the 50% inhibitory concentration (IC50) in assay [2], in [6] and in [4] were 0.004 ± 0.002 µM, 0.004 ± 0.002 µM and 0.002 ± 0.0004 µM, respectively. For the same compound, the “potency difference versus SmSERTs as compared with hSERT (fold less potent at SmSERTs)” value in assay [2] was “two-fold”.
Regarding `COC(=O)[C@H]1[C@@H](OC(=O)c2ccccc2)C[C@@H]2CC[C@H]1N2C` [Cocaine], the half-inhibitory concentration (IC50) – broadly, the concentration that inhibits the measured activity by half – in assay [2] was 37.6 ± 16 µM; in assay [6], 35.4 ± 7.6 µM.
For `CNCCC(Oc1ccc(C(F)(F)F)cc1)c1ccccc1` (centres unmarked) [Fluoxetine], the “production of daughter sporocysts” value in assay [7] is reported as “prevents the production of daughter sporocysts”.
On to `CN(C)CCCN1c2ccccc2CCc2ccccc21` [Imipramine], for which the IC50 in assay [2] was found to be 0.3 ± 0.1 µM; in assay [6], 0.3 ± 0.2 µM.
Consider `CSc1ccc2c(c1)C(N1CCN(C)CC1)Cc1ccccc1S2` (centres unmarked) [Methiothepin], for which the 50% inhibitory concentration (IC50) in assay [2] was 1.9 ± 0.7 µM; in assay [6], 2.2 ± 0.7 µM; in assay [4] it was 6.7 ± 4.1 µM.
Turning to `COC(=O)[C@H]1C(c2ccc(I)cc2)C[C@@H]2CC[C@H]1N2C` (some centres unmarked) [RTI-55], in assay [2], the “potency difference versus SmSERTs as compared with hSERT (fold less potent at SmSERTs)” value worked out at 60 fold. Also, the 50% inhibitory concentration (IC50) in assay [2] (read-out: IC50 for inhibiting serotonin uptake, SmSERT-A) amounted to 0.6 ± 0.4 µM; in assay [6] (read-out: IC50 for inhibiting serotonin uptake, SmSERT-B, COS-7 cells, 100 nM [3H]serotonin, 10 min, mean ± SD), 0.6 ± 0.4 µM; in [4] (read-out: IC50 for inhibiting serotonin uptake, hSERT), 0.01 ± 0.01 µM.
For `COc1ccc2[nH]cc(C3=CCNCC3)c2c1` [RU 24969], the half-maximal inhibitory concentration (IC50) in assay [2] was found to be 180 ± 63 µM; in assay [6] it was 165 ± 65 µM; in [4] it was 8.5 ± 0.9 µM. For the same compound, the “[3H]-serotonin efflux elicited by compound, hSERT” value in assay [5] is listed as “able to elicit serotonin efflux”.
As to `C[C@H](N)Cc1ccccc1` [S(+)Amphetamine], in [1], the “[3H]-serotonin efflux elicited by compound, SmSERT-A” value is recorded as “not transported”. In addition, the 50% inhibitory concentration (IC50) in [2] (setting [15]) is 300 ± 27 µM. Also, the “[3H]-serotonin efflux elicited by compound, SmSERT-B” value in assay [3] is “not transported”.
Regarding `NCCc1c[nH]c2ccccc12` [Tryptamine], the “substrate-elicited transport-associated currents, SmSERT-B” value in assay [8] is listed as “elicits clear transport associated currents”. Besides, the “substrate-elicited transport-associated currents, SmSERT-A” value in [9] was “elicits clear transport associated currents”. Besides, the IC50 came out at 19.6 ± 3.6 µM in assay [2], 19.3 ± 4.4 µM in assay [6] and 1.4 ± 0.1 µM in assay [4]. In addition, the “[3H]-serotonin efflux elicited by compound, hSERT” value in assay [5] is on record as “able to elicit serotonin efflux”.
On to `Cl.Cl.Clc1cccc(N2CCNCC2)c1` [m-CPP, m-1-(3-Chlorophenyl)piperazine dihydrochloride], for which the “[3H]-serotonin efflux elicited by compound, SmSERT-A” value in assay [1] is recorded as “not transported”. Further, the results for the half-inhibitory concentration (IC50) in [2] (setting [15]) and in [4] (setting [16]) were 58 ± 4 µM and 1.8 ± 0.3 µM, respectively. Also, the “[3H]-serotonin efflux elicited by compound, SmSERT-B” value in [3] is given as “not transported”. In [5], the “[3H]-serotonin efflux elicited by compound, hSERT” value is “able to elicit serotonin efflux”.
For `O=C(C1CCCCC1)N1CC(=O)N2CCc3ccccc3C2C1` (centres unmarked) [praziquantel], the “activity on immature worms and eggs” value in assay [10] is “not active on immature worms and eggs”.
As to `NCCc1c[nH]c2ccc(O)cc12` [serotonin, 5-hydroxytryptamine], the “charges moved per serotonin molecule transported (Q/Jmax), SmSERT-B” value in [8] (setting [17]) turned out to be 1.9 charges. Also, the “substrate-elicited transport-associated currents, SmSERT-B” value in [8] is “concentration-dependent inward currents”. Further, the “charges moved per serotonin molecule transported (Q/Jmax), SmSERT-A” value in assay [9] (setting [17]) amounted to 1.9 charges. Moreover, the “substrate-elicited transport-associated currents, SmSERT-A” value in assay [9] is on record as “concentration-dependent inward currents”. Further, in [11], the “apparent affinity for serotonin uptake in sporocysts” value was 1.4 µM. The “transport of tritiated substrate by SmSERT-B” value in assay [12] (data not shown) is “transport”. The “Vmax of serotonin uptake, SmSERT-B” value in [12] (mean ± SD of three experiments) stood at 1.4 ± 1.1 pmol/min. In addition, the Km in assay [12] (read-out: apparent affinity (KT / KM) for serotonin uptake, SmSERT-B, 10 min, room temperature, mean ± SD of three experiments) was 2.2 ± 1.1 µM; in assay [13] (read-out: apparent affinity (KT / KM) for serotonin uptake, SmSERT-A, 10 min, room temperature, mean ± SD of three experiments), 2.3 ± 0.9 µM. Further, the “transport of tritiated substrate by SmSERT-A” value in assay [13] (data not shown) is given as “transport”. The “Vmax of serotonin uptake, SmSERT-A” value in assay [13] (mean ± SD of three experiments) was 1.8 ± 1.4 pmol/min. In addition, the “apparent affinity for serotonin uptake, adult female worms” value in assay [14] (living adult female parasites) is 1.46 µM. Further, the “apparent affinity for serotonin uptake, adult male worms” value in [14] (living adult male parasites) was 1.73 µM.
